Data published in patent US7491819B1 (priority 2004, dated 2009).

target: T1, HIV-integrase (Human immunodeficiency virus type 1 group M subtype B, UniProt P12497); experiment: HIV-Integrase Inhibition Activity (SPA bead strand-transfer assay); format: biochemical; conditions: Table 1; read-out: Activity (HIV-integrase inhibition, IC50 class)
T1 construct: Recombinant integrase (0.26 ng) was incubated with the beads
Experimental: HIV-Integrase Inhibition Activity. To evaluate in-vitro activity against HIV-integrase, 5 pmole of biotin labeled substrate DNA was bound to 100 μg of Streptavidin coated PVT SPA beads (Amersham Pharmacia Biotech). Recombinant integrase (0.26 ng) was incubated with the beads for 90 min at 37° C. Unbound enzyme was removed by washing the complex followed by addition of inhibitors and 0.1 fmol of P33 labeled target DNA. The reaction was stopped by adding EDTA to a final concentration of 10 mM. Samples were counted in TopCountNXT (Packard) and the CPM was used as a measure of integration. The reaction condition was as described in A. Engelman and R. Craigie, J. Virol 69, 5908-5911 (1995). The sequences of substrate and target DNA were described in Nucleic Acid Research 22, 1121-1122 (1994).

| SMILES | IC50 [µM] |
| --- | --- |
| Cc1ccncc1-c1ccccc1CNC(=O)c1nc2n(c(=O)c1O)CCOC2(C)C [Example 191, Pyrimido[2,1-c][1,4]oxazine-2-carboxamide, 4,6,7,9-tetrahydro-3-hydroxy-9,9-dimethyl-N-[[2-(4-methyl-3-pyridinyl)phenyl]methyl]-4-oxo-] | 0.002 to 0.1 |
| Cc1[nH]c2ccc(CNC(=O)c3nc4n(c(=O)c3O)CCOC4(C)C)cc2c1C [Example 144, Pyrimido[2,1-c][1,4]oxazine-2-carboxamide, N-[(2,3-dimethyl-1H-indol-5-yl)methyl]-4,6,7,9-tetrahydro-3-hydroxy-9,9-dimethyl-4-oxo-] | 0.1 to 1 |
| CC1(C)OCCn2c1nc(C(=O)NCc1cccc3c1S(=O)(=O)C=C3)c(O)c2=O [Example 139, Pyrimido[2,1-c][1,4]oxazine-2-carboxamide, N-[(1,1-dioxidobenzo[b]thien-7-yl)methyl]-4,6,7,9-tetrahydro-3-hydroxy-9,9-dimethyl-4-oxo-] | 0.002 to 0.1 |
| CCOc1cccc(CNC(=O)c2nc3n(c(=O)c2O)CCOC3(C)C)c1 [Example 249, Pyrimido[2,1-c][1,4]oxazine-2-carboxamide, N-[(3-ethoxyphenyl)methyl]-4,6,7,9-tetrahydro-3-hydroxy-9,9-dimethyl-4-oxo-] | 0.002 to 0.1 |
| CC1(C)OCCn2c1nc(C(=O)NCc1ccccc1-c1ccc(CN)cc1)c(O)c2=O [Example 169] | 0.002 to 0.1 |
| CNC(=O)c1ccc(-c2ccccc2CNC(=O)c2nc3n(c(=O)c2O)CCOC3(C)C)cc1 [Example 175, Pyrimido[2,1-c][1,4]oxazine-2-carboxamide, 4,6,7,9-tetrahydro-3-hydroxy-9,9-dimethyl-N-[[4′-[(methylamino)carbonyl][1,1′-biphenyl]-2-yl]methyl]-4-oxo-] | 0.002 to 0.1 |
| COc1ccccc1CNC(=O)c1nc2n(c(=O)c1O)CCOC2(C)C [Example 242, Pyrimido[2,1-c][1,4]oxazine-2-carboxamide, 4,6,7,9-tetrahydro-3-hydroxy-N-[(2-methoxyphenyl)methyl]-9,9-dimethyl-4-oxo-] | 0.002 to 0.1 |
| CC1(C)OCCn2c1nc(C(=O)NCc1ccc(F)c(C(F)(F)F)c1)c(O)c2=O [Example 241, Pyrimido[2,1-c][1,4]oxazine-2-carboxamide, N-[[4-fluoro-3-(trifluoromethyl)phenyl]methyl]-4,6,7,9-tetrahydro-3-hydroxy-9,9-dimethyl-4-oxo-] | 0.002 to 0.1 |
| CC1(C)OCCn2c1nc(C(=O)NCc1ccc(F)cc1-n1ccnc1)c(O)c2=O [Example 53, Pyrimido[2,1-c][1,4]oxazine-2-carboxamide, N-[[4-fluoro-2-(1H-imidazol-1-yl)phenyl]methyl]-4,6,7,9-tetrahydro-3-hydroxy-9,9-dimethyl-4-oxo-] | 0.002 to 0.1 |
| CC1(C)OCCn2c1nc(C(=O)NCc1ccc(F)cc1O)c(O)c2=O [Example 95, Pyrimido[2,1-c][1,4]oxazine-2-carboxamide, N-[(4-fluoro-2-hydroxyphenyl)methyl]-4,6,7,9-tetrahydro-3-hydroxy-9,9-dimethyl-4-oxo-] | 0.002 to 0.1 |
| Cc1ccc(CNC(=O)c2nc3n(c(=O)c2O)CCOC3(C)C)c(F)c1F [Example 276, Pyrimido[2,1-c][1, 4]oxazine-2-carboxamide, N-[(2,3-difluoro-4-methylphenyl)methyl]-4,6,7,9-tetrahydro-3-hydroxy-9,9-dimethyl-4-oxo-] | 0.002 to 0.1 |
| CC1(C)OCCn2c1nc(C(=O)NCc1ccc(F)cc1C#CCO)c(O)c2=O [Example 89, Pyrimido[2,1-c][1,4]oxazine-2-carboxamide, N-[[4-fluoro-2-(3-hydroxy-1-propynyl)phenyl]methyl]-4,6,7,9-tetrahydro-3-hydroxy-9,9-dimethyl-4-oxo-] | 0.002 to 0.1 |
| CC1(C)OCCn2c1nc(C(=O)NCc1ccccc1C1=CCCC1)c(O)c2=O [Example 200, Pyrimido[2,1-c][1,4]oxazine-2-carboxamide, N-[[2-(1-cyclopenten-1-yl)phenyl]methyl]-4,6,7,9-tetrahydro-3-hydroxy-9,9-dimethyl-4-oxo-] | 0.002 to 0.1 |
| COc1ncc(-c2ccccc2CNC(=O)c2nc3n(c(=O)c2O)CCOC3(C)C)c(OC)n1 [Example 149, Pyrimido[2,1-c][1,4]oxazine-2-carboxamide, N-[[2-(2,4-dimethoxy-5-pyrimidinyl)phenyl]methyl]-4,6,7,9-tetrahydro-3-hydroxy-9,9-dimethyl-4-oxo-] | 0.002 to 0.1 |
| CC1(C)OCCn2c1nc(C(=O)NCc1ccc3c(c1)CCO3)c(O)c2=O [Example 250, Pyrimido[2,1-c][1,4]oxazine-2-carboxamide, N-[(2,3-dihydro-5-benzofuranyl)methyl]-4,6,7,9-tetrahydro-3-hydroxy-9,9-dimethyl-4-oxo-] | 0.002 to 0.1 |
| CC1(C)OCCn2c1nc(C(=O)NCc1cc(F)ccc1-n1cncn1)c(O)c2=O [Example 54, Pyrimido[2,1-c][1,4]oxazine-2-carboxamide, N-[[5-fluoro-2-(1H-1,2,4-triazol-1-yl)phenyl]methyl]-4,6,7,9-tetrahydro-3-hydroxy-9,9-dimethyl-4-oxo-e] | 0.002 to 0.1 |
| CN(C)C(=O)c1ccc(-c2ccccc2CNC(=O)c2nc3n(c(=O)c2O)CCOC3(C)C)cc1 [Example 170, Pyrimido[2,1-c][1,4]oxazine-2-carboxamide, N-[[4′-[(dimethylamino)carbonyl][1,1′-biphenyl]-2-yl]methyl]-4,6,7,9-tetrahydro-3-hydroxy-9,9-dimethyl-4-oxo-] | 0.002 to 0.1 |
| Cc1ccc(F)c(CNC(=O)c2nc3n(c(=O)c2O)CCOC3(C)C)c1F [Example 275, Pyrimido[2,1-c][1,4]oxazine-2-carboxamide, N-[(2,6-difluoro-3-methylphenyl)methyl]-4,6,7,9-tetrahydro-3-hydroxy-9,9-dimethyl-4-oxo-] | 0.002 to 0.1 |
| CC1(C)OCCCn2c1nc(C(=O)NCc1ccccc1N1CCCCS1(=O)=O)c(O)c2=O [Example 206, 6H-pyrimido[2,1-c][1,4]oxazepine-2-carboxamide, 4,7,8,10-tetrahydro-3-hydroxy-10,10-dimethyl-4-oxo-N-[[2-(tetrahydro-1,1-dioxido-2H-1,2-thiazin-2-yl)phenyl]methyl]-] | 0.002 to 0.1 |
| CN(C)Cc1ccc(-c2ccccc2CNC(=O)c2nc3n(c(=O)c2O)CCOC3(C)C)cc1 [Example 178, Pyrimido[2,1-c][1,4]oxazine-2-carboxamide, N-[[4′-[(dimethylamino)methyl][1,1′-biphenyl]-2-yl]methyl]-4,6,7,9-tetrahydro-3-hydroxy-9,9-dimethyl-4-oxo-] | 0.002 to 0.1 |
| CC1(C)OCCn2c1nc(C(=O)NCc1ccc(F)cc1N1CCCCC1=O)c(O)c2=O [Example 121, Pyrimido[2,1-c][1,4]oxazine-2-carboxamide, N-[[4-fluoro-2-(2-oxo-1-piperidinyl)phenyl]methyl]-4,6,7,9-tetrahydro-3-hydroxy-9,9-dimethyl-4-oxo-] | 0.002 to 0.1 |
| CC1(C)OCCn2c1nc(C(=O)NCc1ccc(F)cc1C(=O)NCCO)c(O)c2=O [Example 51, Pyrimido[2,1-c][1,4]oxazine-2-carboxamide, N-[[4-fluoro-2-[[(2-hydroxyethyl)amino]carbonyl]phenyl]methyl]-4,6,7,9-tetrahydro-3-hydroxy-9,9-dimethyl-4-oxo-] | 0.002 to 0.1 |
| CCCn1cc(-c2ccccc2CNC(=O)c2nc3n(c(=O)c2O)CCOC3(C)C)cn1 [Example 158, Pyrimido[2,1-c][1,4]oxazine-2-carboxamide, 4,6,7,9-tetrahydro-3-hydroxy-9,9-dimethyl-4-oxo-N-[[2-(1-propyl-1H-pyrazol-4-yl)phenyl]methyl]-] | 0.002 to 0.1 |
| CC1(C)OCCn2c1nc(C(=O)NCc1ccccc1-c1ccc(CC#N)cc1)c(O)c2=O [Example 189, Pyrimido[2,1-c][1,4]oxazine-2-carboxamide, N-[[4′-(cyanomethyl)[1,1′-biphenyl]-2-yl]methyl]-4,6,7,9-tetrahydro-3-hydroxy-9,9-dimethyl-4-oxo-] | 0.002 to 0.1 |
| Cc1cc(CNC(=O)c2nc3n(c(=O)c2O)CCCOC3(C)C)ccc1F [Example 45, 6H-Pyrimido[2,1-c][1,4]oxazepine-2-carboxamide, N-[(4-fluoro-3-methylphenyl)methyl]-4,7,8,10-tetrahydro-3-hydroxy-10,10-dimethyl-4-oxo-] | 0.002 to 0.1 |
| CC1(C)OCCn2c1nc(C(=O)NCc1ccc(Cl)cc1F)c(O)c2=O [Example 277, Pyrimido[2,1-c][1,4]oxazine-2-carboxamide, N-[(4-chloro-2-fluorophenyl)methyl]-4,6,7,9-tetrahydro-3-hydroxy-9,9-dimethyl-4-oxo-] | 0.002 to 0.1 |
| CC1(C)OCCn2c1nc(C(=O)NCc1ccc(F)cc1C#CCN1CCCCS1(=O)=O)c(O)c2=O [Example 93, Pyrimido[2,1-c][1,4]oxazine-2-carboxamide, N-[[4-fluoro-2-[3-(tetrahydro-1,1-dioxido-2H-1,2-thiazin-2-yl)-1-propynyl]phenyl]methyl]-4,6,7,9-tetrahydro-3-hydroxy-9,9-dimethyl-4-oxo-] | 0.002 to 0.1 |
| Cc1ccc(C)c(CNC(=O)c2nc3n(c(=O)c2O)CCOC3(C)C)c1 [Example 269, Pyrimido[2,1-c][1,4]oxazine-2-carboxamide, N-[(2,5-dimethylphenyl)methyl]-4,6,7,9-tetrahydro-3-hydroxy-9,9-dimethyl-4-oxo-] | 0.002 to 0.1 |
| COC(=O)c1cc(F)ccc1CNC(=O)c1nc2n(c(=O)c1O)CCOC2(C)C [Example 47, Benzoic acid, 5-fluoro-2-[[[(4,6,7,9-tetrahydro-3-hydroxy-9,9-dimethyl-4-oxopyrimido[2,1-c][1,4]oxazin-2-yl)carbonyl]amino]methyl]-, methyl ester] | 0.002 to 0.1 |
